In patent US20020031795A1, “Nitrocoumarins for detecting all micro-organisms” (priority 1998, published 2002):

Tests used:
[1] = system: E. coli (NCTC strain 10418); test: Fluorescent signal generated by E. coli reducing nitrocoumarins (nitroaryl reductase activity); type: cell-based, Escherichia coli
Description: A sample of the 7-nitrocoumarin derivative is dissolved in 4 ml of hot, distilled water. The mass dissolved to make the stock solution is such that the final concentration of the compound in the assay is 0.105 mmol/l. This solution is added to 96 ml of Mueller-Hinton broth and the mixture is sterile-filtered.
(§1) The E. coli was grown for 24 hours at 35° C. on Columbia agar supplemented with sheep blood. The bacteria were then resuspended in sterile, distilled water and their density was adjusted to 0.5 on the MacFarland scale (i.e. about 10^8 cells/ml). This suspension was then diluted 100-fold in sterile Mueller-Hinton broth (i.e. to a final density of about 10^6 cells/ml).
(§2) Fifty microliters of each nitrocoumarin solution plus 50 μl of bacterial suspension were then added to the wells of a microtiter plate. The plates were incubated at 35° C. and the optical density and fluorescence of each well was read every 30 min for a total of 4 hours. Optical density (690 nm) readings were made using an Anthos 2001 spectrophotometer (Labtech International Limited), and fluorescence (excitation at 365 nm and emission at 440 nm) readings were made on a Biolite F1 2001 fluorometer (Labtech International Limited).
The effect of the concentration of 7-nitrocoumarin-3-carboxylic acid on the sensitivity of the assay to detect E. coli (NCTC strain 10418) was investigated at concentrations of the indicator ranging from 0 to 0.262 mmol/l. All other conditions were identical to those described in section A above.

Shigella sonnei = test: Growth of wild Enterobacteriaceae strain in Mueller-Hinton broth (optical density); type: cell-based; conditions: 0.17 mmol/l
Description: as §1, §2
(§3) This experiment was designed to investigate whether or not it would be possible to detect Enterobacteriaceae other than E. coli using 7-nitrocoumarin-3-carboxylic acid. The conditions for this experiment were similar to those described for the first experiment (section A).
(§4) Five wild strains belonging to the species Citrobacter diversus, Enterobacter agglomerans, Hafnia alvei, Morganella morganii and Shigella sonnei were tested

Hafnia alvei = test: as above; type: cell-based; conditions: 0.17 mmol/l
Description: as §1, §2, §3, §4

Citrobacter diversus = test: as above; type: cell-based; conditions: 0.17 mmol/l
Description: as §1, §2, §3, §4

Morganella morganii = test: as above; type: cell-based; conditions: 0.17 mmol/l
Description: as §1, §2, §3, §4

Enterobacter agglomerans = test: as above; type: cell-based; conditions: 0.17 mmol/l
Description: as §1, §2, §3, §4

## O=C(O)c1cc2ccc([N+](=O)[O-])cc2oc1=O [7-nitrocoumarin-3-carboxylic acid]
[1]; 0.005 mmol/l, 0 min
  Fluorescent signal: 0
[1]; 0.005 mmol/l, 30 min
  Fluorescent signal: −134
[1]; 0.005 mmol/l, 60 min
  Fluorescent signal: −164
[1]; 0.005 mmol/l, 90 min
  Fluorescent signal: −122
[1]; 0.005 mmol/l, 120 min
  Fluorescent signal: −94
[1]; 0.005 mmol/l, 150 min
  Fluorescent signal: −9
[1]; 0.005 mmol/l, 180 min
  Fluorescent signal: 406
[1]; 0.005 mmol/l, 210 min
  Fluorescent signal: 1307
[1]; 0.005 mmol/l, 240 min
  Fluorescent signal: 2466
[1]; 0.013 mmol/l, 0 min
  Fluorescent signal: 0
[1]; 0.013 mmol/l, 30 min
  Fluorescent signal: −113
[1]; 0.013 mmol/l, 60 min
  Fluorescent signal: −141
[1]; 0.013 mmol/l, 90 min
  Fluorescent signal: −76
[1]; 0.013 mmol/l, 120 min
  Fluorescent signal: −22
[1]; 0.013 mmol/l, 150 min
  Fluorescent signal: 174
[1]; 0.013 mmol/l, 180 min
  Fluorescent signal: 1068
[1]; 0.013 mmol/l, 210 min
  Fluorescent signal: 3073
[1]; 0.013 mmol/l, 240 min
  Fluorescent signal: 5902
[1]; 0.026 mmol/l, 0 min
  Fluorescent signal: 0
[1]; 0.026 mmol/l, 30 min
  Fluorescent signal: −91
[1]; 0.026 mmol/l, 60 min
  Fluorescent signal: −110
[1]; 0.026 mmol/l, 90 min
  Fluorescent signal: −39
[1]; 0.026 mmol/l, 120 min
  Fluorescent signal: 71
[1]; 0.026 mmol/l, 150 min
  Fluorescent signal: 467
[1]; 0.026 mmol/l, 180 min
  Fluorescent signal: 2311
[1]; 0.026 mmol/l, 210 min
  Fluorescent signal: 6028
[1]; 0.026 mmol/l, 240 min
  Fluorescent signal: 11387
[1]; 0.052 mmol/l, 0 min
  Fluorescent signal: 0
[1]; 0.052 mmol/l, 30 min
  Fluorescent signal: −83
[1]; 0.052 mmol/l, 60 min
  Fluorescent signal: −76
[1]; 0.052 mmol/l, 90 min
  Fluorescent signal: 33
[1]; 0.052 mmol/l, 120 min
  Fluorescent signal: 241
[1]; 0.052 mmol/l, 150 min
  Fluorescent signal: 861
[1]; 0.052 mmol/l, 180 min
  Fluorescent signal: 4004
[1]; 0.052 mmol/l, 210 min
  Fluorescent signal: 10584
[1]; 0.052 mmol/l, 240 min
  Fluorescent signal: 19530
[1]; 0.105 mmol/l
  Fluorescent signal relative to that given by any of the other substrates: more than twice as high
[1]; 0.105 mmol/l, 0 min
  Fluorescent signal: 0
[1]; 0.105 mmol/l, 30 min
  Fluorescent signal: −67
[1]; 0.105 mmol/l, 60 min
  Fluorescent signal: 4
[1]; 0.105 mmol/l, 90 min
  Fluorescent signal: 181
[1]; 0.105 mmol/l, 120 min
  Fluorescent signal: 586
[1]; 0.105 mmol/l, 150 min
  Fluorescent signal: 1694
[1]; 0.105 mmol/l, 180 min
  Fluorescent signal: 6724
[1]; 0.105 mmol/l, 210 min
  Fluorescent signal: 17495
[1]; 0.105 mmol/l, 240 min
  Fluorescent signal: 31314
[1]; 0.105 mmol/l, end of the four-hour assay
  Extent of reduction of the substrate (in words): reduced to a far greater extent than any of the other nitrocoumarins
[1]; 0.157 mmol/l, 0 min
  Fluorescent signal: 0
[1]; 0.157 mmol/l, 30 min
  Fluorescent signal: −74
[1]; 0.157 mmol/l, 60 min
  Fluorescent signal: 48
[1]; 0.157 mmol/l, 90 min
  Fluorescent signal: 280
[1]; 0.157 mmol/l, 120 min
  Fluorescent signal: 811
[1]; 0.157 mmol/l, 150 min
  Fluorescent signal: 2231
[1]; 0.157 mmol/l, 180 min
  Fluorescent signal: 8264
[1]; 0.157 mmol/l, 210 min
  Fluorescent signal: 21022
[1]; 0.157 mmol/l, 240 min
  Fluorescent signal: 36517
[1]; 0.210 mmol/l, 0 min
  Fluorescent signal: 0
[1]; 0.210 mmol/l, 30 min
  Fluorescent signal: −6
[1]; 0.210 mmol/l, 60 min
  Fluorescent signal: 88
[1]; 0.210 mmol/l, 90 min
  Fluorescent signal: 354
[1]; 0.210 mmol/l, 120 min
  Fluorescent signal: 979
[1]; 0.210 mmol/l, 150 min
  Fluorescent signal: 2588
[1]; 0.210 mmol/l, 180 min
  Fluorescent signal: 9000
[1]; 0.210 mmol/l, 210 min
  Fluorescent signal: 21589
[1]; 0.210 mmol/l, 240 min
  Fluorescent signal: 37823
[1]; 0.262 mmol/l, 0 min
  Fluorescent signal: 0
[1]; 0.262 mmol/l, 30 min
  Fluorescent signal: 3
[1]; 0.262 mmol/l, 60 min
  Fluorescent signal: 131
[1]; 0.262 mmol/l, 90 min
  Fluorescent signal: 446
[1]; 0.262 mmol/l, 120 min
  Fluorescent signal: 1190
[1]; 0.262 mmol/l, 150 min
  Fluorescent signal: 3037
[1]; 0.262 mmol/l, 180 min
  Fluorescent signal: 9721
[1]; 0.262 mmol/l, 210 min
  Fluorescent signal: 22066
[1]; 0.262 mmol/l, 240 min
  Fluorescent signal: 37949
Shigella sonnei; 0 min
  Optical density (690 nm): 0.000
Shigella sonnei; 30 min
  Optical density (690 nm): −0.001
Shigella sonnei; 60 min
  Optical density (690 nm): 0.000
Shigella sonnei; 90 min
  Optical density (690 nm): 0.002
Shigella sonnei; 120 min
  Optical density (690 nm): 0.013
Shigella sonnei; 150 min
  Optical density (690 nm): 0.042
Shigella sonnei; 180 min
  Optical density (690 nm): 0.097
Shigella sonnei; 210 min
  Optical density (690 nm): 0.159
Shigella sonnei; 240 min
  Optical density (690 nm): 0.246
Hafnia alvei; 0 min
  Optical density (690 nm): 0.000
Hafnia alvei; 30 min
  Optical density (690 nm): −0.001
Hafnia alvei; 60 min
  Optical density (690 nm): 0.004
Hafnia alvei; 90 min
  Optical density (690 nm): 0.009
Hafnia alvei; 120 min
  Optical density (690 nm): 0.016
Hafnia alvei; 150 min
  Optical density (690 nm): 0.034
Hafnia alvei; 180 min
  Optical density (690 nm): 0.092
Hafnia alvei; 210 min
  Optical density (690 nm): 0.149
Hafnia alvei; 240 min
  Optical density (690 nm): 0.246
Citrobacter diversus; 0 min
  Optical density (690 nm): 0.000
Citrobacter diversus; 30 min
  Optical density (690 nm): 0.000
Citrobacter diversus; 60 min
  Optical density (690 nm): 0.005
Citrobacter diversus; 90 min
  Optical density (690 nm): 0.011
Citrobacter diversus; 120 min
  Optical density (690 nm): 0.020
Citrobacter diversus; 150 min
  Optical density (690 nm): 0.050
Citrobacter diversus; 180 min
  Optical density (690 nm): 0.092
Citrobacter diversus; 210 min
  Optical density (690 nm): 0.143
Citrobacter diversus; 240 min
  Optical density (690 nm): 0.250
Morganella morganii; 0 min
  Optical density (690 nm): 0.000
Morganella morganii; 30 min
  Optical density (690 nm): −0.010
Morganella morganii; 60 min
  Optical density (690 nm): −0.010
Morganella morganii; 90 min
  Optical density (690 nm): −0.005
Morganella morganii; 120 min
  Optical density (690 nm): 0.003
Morganella morganii; 150 min
  Optical density (690 nm): 0.020
Morganella morganii; 180 min
  Optical density (690 nm): 0.064
Morganella morganii; 210 min
  Optical density (690 nm): 0.116
Morganella morganii; 240 min
  Optical density (690 nm): 0.187
Enterobacter agglomerans; 0 min
  Optical density (690 nm): 0.000
Enterobacter agglomerans; 30 min
  Optical density (690 nm): −0.002
Enterobacter agglomerans; 60 min
  Optical density (690 nm): 0.002
Enterobacter agglomerans; 90 min
  Optical density (690 nm): 0.006
Enterobacter agglomerans; 120 min
  Optical density (690 nm): 0.027
Enterobacter agglomerans; 150 min
  Optical density (690 nm): 0.057
Enterobacter agglomerans; 180 min
  Optical density (690 nm): 0.155
Enterobacter agglomerans; 210 min
  Optical density (690 nm): 0.225
Enterobacter agglomerans; 240 min
  Optical density (690 nm): 0.323
